In general, inhibition refers to the share of the control response that was lost under treatment. As a reminder, the IC50 is the concentration needed to halve the response being measured.

Where two headings read alike, the source gives them in different places.

The values that follow come from patent US7135466B2 (Kirin Beer Kabushiki Kaisha, priority 1999, dated 2006).

The target of assay [1] is T1, c-kit (Homo sapiens, UniProt P10721).
T1 construct: MO7e (human megakaryocytic leukemia cell line) which had been arrested for 20 hr; endogenous in cells; host or cells: MO7e human megakaryocytic leukemia cell line
T1 sequence (P10721 26-976): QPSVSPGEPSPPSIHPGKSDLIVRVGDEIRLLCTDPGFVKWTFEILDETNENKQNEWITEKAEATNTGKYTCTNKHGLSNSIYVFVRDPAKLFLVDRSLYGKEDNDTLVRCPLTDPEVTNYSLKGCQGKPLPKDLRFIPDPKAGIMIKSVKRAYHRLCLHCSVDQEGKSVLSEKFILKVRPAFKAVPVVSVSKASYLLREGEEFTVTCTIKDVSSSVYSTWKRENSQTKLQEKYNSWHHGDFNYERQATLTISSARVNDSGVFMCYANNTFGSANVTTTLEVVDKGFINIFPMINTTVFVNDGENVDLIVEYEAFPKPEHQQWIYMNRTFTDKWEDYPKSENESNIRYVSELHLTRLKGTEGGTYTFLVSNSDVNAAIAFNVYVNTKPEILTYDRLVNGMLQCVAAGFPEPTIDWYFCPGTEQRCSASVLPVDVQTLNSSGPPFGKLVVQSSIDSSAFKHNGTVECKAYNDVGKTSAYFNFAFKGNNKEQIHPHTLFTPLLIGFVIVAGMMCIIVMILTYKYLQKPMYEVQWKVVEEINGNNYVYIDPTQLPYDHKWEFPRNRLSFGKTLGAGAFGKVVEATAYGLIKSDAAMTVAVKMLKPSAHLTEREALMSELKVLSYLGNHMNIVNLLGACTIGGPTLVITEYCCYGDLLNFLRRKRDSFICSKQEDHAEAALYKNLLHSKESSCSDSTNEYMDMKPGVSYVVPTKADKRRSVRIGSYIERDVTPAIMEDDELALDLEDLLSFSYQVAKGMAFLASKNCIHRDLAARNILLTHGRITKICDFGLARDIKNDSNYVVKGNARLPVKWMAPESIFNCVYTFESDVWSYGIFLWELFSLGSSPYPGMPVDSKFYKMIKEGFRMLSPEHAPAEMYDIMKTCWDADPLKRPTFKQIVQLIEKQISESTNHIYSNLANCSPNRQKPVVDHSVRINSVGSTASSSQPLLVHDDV
Put plainly: Inhibitory activity against c-kit autophosphorylation (MO7e cells, h-SCF). The note with it: for inhibition at 1 µM: Mo7e; for IC50: MO7e cells, read-out: c-kit IC50. Type of assay: cell-based. In outline:
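Phospho-c-kit ELISA: plate-bound PY-20 anti-phosphotyrosine captures lysate, anti-c-kit plus peroxidase-labelled secondary antibody detect, read at 450 nm. Lysates come from 20 hr-arrested MO7e cells given compound for 1 hr before a 5 min 50 ng/ml h-SCF stimulus.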

Assay [2] concerns the target PDGF-R (Rattus norvegicus, UniProt Q05030). Briefly: PDGF-R autophosphorylation inhibition screening (dot plotting), vascular smooth muscle cells, PDGF-BB. Type of assay: cell-based. Particulars: for inhibition at 1 µM: figure in parentheses in −( ), at 1000 nM, read-out: PDGF (D) inhibition (%) at 1000 nM; for IC50: PDGF (D) column. Here is the method:
PDGF-R Autophosphorylation Inhibition Screening (Dot Plotting)
Vascular smooth muscle cells (passage 5 to 10) collected from rat thoracic aorta by the explant method were planted at 8×10^3 cells per well in 96-well plates, subject to a serum starvation state, and 24 hr after the plantation then assayed.
A test compund was added, and the mixture was incubated at 37° C. for one hr. Thereafter, PDGF-BB was added to 50 ng/ml, and the mixture was incubated for 5 min, followed by washing with cold PBS. Lysate buffer (20 μl/well) was then added, SDS buffer ([…]) was added thereto, and 2 μl of the mixture was then spotted on a PDVF membrane.
Treatment was carried out with anti-mouse IgG which had been labelled with peroxidase after treatment with an anti-phosphotyrosine antibody, followed by development in an ECL color development kit (Amersham). Thereafter, the color intensity was quantitatively determined by image analysis.

Setting [3] is: figure in parentheses in −( ), at 1000 nM.

Sequence of PDGF-R (Q05030 32-1097): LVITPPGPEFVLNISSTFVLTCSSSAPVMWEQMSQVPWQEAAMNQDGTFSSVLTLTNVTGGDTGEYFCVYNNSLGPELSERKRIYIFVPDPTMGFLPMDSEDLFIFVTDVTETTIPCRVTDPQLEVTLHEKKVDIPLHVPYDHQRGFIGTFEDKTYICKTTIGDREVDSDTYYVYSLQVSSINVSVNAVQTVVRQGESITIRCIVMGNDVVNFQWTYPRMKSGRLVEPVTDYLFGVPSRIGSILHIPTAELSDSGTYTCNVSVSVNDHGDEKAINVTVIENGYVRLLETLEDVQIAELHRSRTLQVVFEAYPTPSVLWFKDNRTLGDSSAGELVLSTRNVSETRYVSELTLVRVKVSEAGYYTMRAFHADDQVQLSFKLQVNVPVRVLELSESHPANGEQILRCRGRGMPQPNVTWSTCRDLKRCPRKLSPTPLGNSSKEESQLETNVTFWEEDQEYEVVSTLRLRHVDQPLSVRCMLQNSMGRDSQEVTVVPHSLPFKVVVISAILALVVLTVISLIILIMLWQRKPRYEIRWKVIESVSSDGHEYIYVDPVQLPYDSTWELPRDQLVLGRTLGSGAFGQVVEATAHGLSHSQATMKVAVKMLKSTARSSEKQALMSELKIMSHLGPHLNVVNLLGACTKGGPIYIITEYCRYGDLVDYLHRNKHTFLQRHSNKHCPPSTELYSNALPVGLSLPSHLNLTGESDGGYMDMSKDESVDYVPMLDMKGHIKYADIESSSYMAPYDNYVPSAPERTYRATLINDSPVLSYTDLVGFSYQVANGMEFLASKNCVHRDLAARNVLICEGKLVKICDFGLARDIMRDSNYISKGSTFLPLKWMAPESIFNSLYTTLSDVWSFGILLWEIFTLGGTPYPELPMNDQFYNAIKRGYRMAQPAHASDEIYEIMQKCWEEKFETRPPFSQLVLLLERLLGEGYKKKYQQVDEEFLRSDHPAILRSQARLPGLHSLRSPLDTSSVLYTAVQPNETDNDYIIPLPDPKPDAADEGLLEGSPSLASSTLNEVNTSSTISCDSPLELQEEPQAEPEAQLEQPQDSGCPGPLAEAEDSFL

For the compound `COc1cc2nccc(Oc3ccc(S(=O)(=O)CCOc4ccc(F)cc4)cc3)c2cc1OC` [Example 829, 4-[(6,7-Dimethoxy-4-quinolyl)oxy]phenyl [2-(4-fluorophenoxy)ethyl]sulfone], the values for the inhibition at 1 µM in assay [1] (setting [3]) and in assay [2] were 10% and 30%, respectively.

As to `COc1cccc(OCCS(=O)(=O)c2ccc(Oc3ccnc4cc(OC)c(OC)cc34)cc2)c1` [Example 830, 4-[(6,7-Dimethoxy-4-quinolyl)oxy]phenyl [2-(3-methoxyphenoxy)ethyl]sulfone], the inhibition at 1 µM in assay [1] (setting [3]) came out at 10%; in assay [2] it was 23%.

For the compound `COc1cc2nccc(Oc3ccc(S(=O)(=O)CCOc4ccc(Cl)cc4Cl)cc3)c2cc1OC` [Example 831, 2-(2,4-Dichlorophenoxy)ethyl{4-[(6,7-dimethoxy-4-quinolyl)oxy]phenyl}sulfone], the figures for the inhibition at 1 µM in assay [1] (setting [3]) and in assay [2] were 19% and 50%, respectively.

`COc1cc2nccc(Oc3ccc(S(=O)(=O)CCOc4cccc(Cl)c4)cc3)c2cc1OC` [Example 832, 2-(3-Chlorophenoxy)ethyl{4-[(6.7-dimethoxy-4-quinolyl)oxy]phenyl}sulfone]: the inhibition at 1 µM in assay [1] (setting [3]) was found to be 21%; in assay [2], 35%.

On to `COc1cc2nccc(Oc3ccc(S(=O)(=O)CCOc4ccc(C)cc4)cc3)c2cc1OC` [Example 834, 4-[(6,7-Dimethoxy-4-quinolyl)oxy]phenyl [2-(4-methylphenoxy)ethyl]sulfone], for which the results for the inhibition at 1 µM in assay [1] (setting [3]) and in assay [2] were 1% and 23%, respectively.

As to `COc1cc2nccc(Oc3ccc(S(=O)(=O)CCOc4ccccc4F)cc3)c2cc1OC` [Example 837, 4-[(6,7-Dimethoxy-4-quinolyl)oxy]phenyl [2-(2-fluorophenoxy)ethyl]sulfone], the inhibition at 1 µM worked out at 19% in assay [1] (setting [3]) and 10% in assay [2].

As for `COc1cc2nccc(Oc3ccc([S+]([O-])CCOc4ccc(F)cc4[N+](=O)[O-])cc3)c2cc1OC` (stereo not drawn) [Example 839, {4-[(6,7-Dimethoxy-4-quinolyl)oxy]phenyl}[2-(4-fluoro-2-nitrophenoxy)ethyl] sulfoxide], the inhibition at 1 µM was 30% in assay [1] (setting [3]) and 24% in assay [2].

For the compound `CCCCCCCCCCCC(=O)NC(=S)Nc1ccc(Oc2ccnc3cc(OC)c(OC)cc23)cc1` [Example 1072, N-{4-[(6,7-Dimethoxy-4-quinolyl)oxy]phenyl}-N′-dodecanoylthiourea], the inhibition at 1 µM in assay [1] (setting [3]) is 18%; in assay [2] it was 34%.

Consider `CCCCCCCCCCCCCC(=O)NC(=S)Nc1ccc(Oc2ccnc3cc(OC)c(OC)cc23)cc1` [Example 1073, N-{4-[(6,7-Dimethoxy-4-quinolyl)oxy]phenyl}-N′-tetradecanoylthiourea], for which the results for the inhibition at 1 µM in assay [1] (setting [3]) and in assay [2] were 20% and 23%, respectively.

For the compound `CCCCCCCCCCCC(=O)NC(=S)Nc1ccc(Oc2ccnc3cc(OC)c(OC)cc23)cc1F` [Example 1075, N-{4-[(6,7-Dimethoxy-4-quinolyl)oxy]-2-fluorophenyl}-N′-dodecanoylthiourea], the inhibition at 1 µM in assay [1] (setting [3]) came out at 31%; in assay [2], 17%.

Take `COc1cc2nccc(Oc3ccc(NC(=S)NC(=O)c4ccc([N+](=O)[O-])cc4)c(C)c3C)c2cc1OC` [Example 1081, N-{4-[(6,7-Dimethoxy-4-quinolyl)oxy]-2,3-dimethylphenyl}-N′-(4-nitrobenzoyl)thiourea]: the inhibition at 1 µM is 47% in assay [1] (setting [3]) and 50% in assay [2].

Regarding `COc1cc2nccc(Oc3ccc(NC(=S)NC(=O)c4ccc(Cl)cc4Cl)c(C)c3C)c2cc1OC` [Example 1086, N-(2,4-Dichlorobenzoyl)-N′-{4-[(6,7-dimethoxy-4-quinolyl)oxy]-2,3-dimethylphenyl}thiourea], the inhibition at 1 µM in assay [1] (setting [3]) amounted to 19%; in assay [2] it was 48%.

On to `COc1cc2nccc(Oc3ccc(NC(=S)NC(=O)c4ccc([N+](=O)[O-])cc4)c(C)c3)c2cc1OC` [Example 1092, N-{4-[(6,7-Dimethoxy-4-quinolyl)oxy]-2-methylphenyl}-N′-(4-nitrobenzoyl)thiourea], for which the values for the inhibition at 1 µM in assay [1] (setting [3]) and in assay [2] were 10% and 15%, respectively.

In the case of `COc1ccc(C(=O)NC(=S)Nc2ccc(Oc3ccnc4cc(OC)c(OC)cc34)cc2C)cc1` [Example 1095, N-{4-[(6,7-Dimethoxy-4-quinolyl)oxy]-2-methylphenyl}-N′-(4-methoxybenzoyl)thiourea], the inhibition at 1 µM in assay [1] (setting [3]) was 25%; in assay [2] it was 20%.

Consider `COc1cc2nccc(Oc3ccc(NC(=S)NC(=O)c4ccc(C)cc4)c(C)c3)c2cc1OC` [Example 1096, N-{4-[(6,7-Dimethoxy-4-quinolyl)oxy]-2-methylphenyl}-N′-(4-methylbenzoyl)thiourea], for which the values for the inhibition at 1 µM in assay [1] (setting [3]) and in assay [2] were 3% and 30%, respectively.

On to `COc1ccc(C(=O)NC(=S)Nc2ccc(Oc3ccnc4cc(OC)c(OC)cc34)cc2F)c(OC)c1` [Example 1123, N-(2,4-Dimethoxybenzoyl)-N′-{4-[(6,7-dimethoxy-4-quinolyl)oxy]-2-fluorophenyl}thiourea], for which, in assay [1] (h-SCF stimulation), the IC50 came to 961 nM. For the same compound, in assay [2], the inhibition at 1 µM was found to be 43%.

Regarding “N-{4-[(6,7-Dimethoxy-4-quinolyl)oxy]-2-fluorophenyl}-N′-(methylamino)urea [Example 611]”, the IC50 in assay [1] (50 ng/ml h-SCF) came to 1070 nM; in assay [2] it was 95 nM.

“{4-[(6,7-Dimethoxy-4-quinolyl)oxy]phenyl}[2-(3-methoxy-4-nitrophenoxy)ethyl] sulfoxide [Example 838]”: the “c-kit inhibition (%) at 1000 nM” value in assay [1] (setting [3]) is on record as “−(23) %”. This compound gave an IC50 in assay [2] (> means inhibition at indicated concentration not more than 50%, < not less than 50%) of 590 nM.
